The subject of one assay is gastric HCl secretion. The assay is described as follows: in vivo inhibition of gastric acid secretion in dogs with chronic gastric fistula and Heidenhain pouch. To be noted: infused at 3 μg/kg-hr. for one hour, secretion induced by C-terminal tetrapeptide of gastrin 0.5 μg/kg-hr. On the procedure: D-Lys^4 -somatostatin and D-Ala^2,D-Lys^4 -somatostatin also were tested in dogs for their in vivo inhibition of gastric acid secretion. In dogs with chronic gastric fistula and Heidenhain pouch, gastric HCl secretion was induced by infusion of the C-terminal tetrapeptide of gastrin at 0.5 μg/kg-hr. One dog served as control, receiving only the tetrapeptide. Another dog received the tetrapeptide and somatostatin while the test compound was administered to other dogs in place of somatostatin. After one hour of steady state secretion of HCl, somatostatin or the test compound was infused at 3 μg/kg-hr. for one hour. Collection of gastric acid samples was continued for an additional 1.5 hours at 15 minute intervals.

A further assay relates to glucagon secretion. As to the kind of experiment: in vivo inhibition of glucagon secretion upon stimulation with insulin. To be noted: dogs; insulin 0.3 units/kg. i.v.; infusion 0.07-0.13 μg/kg/min. (D-Lys^4 at 0.150, D-Ala^2,D-Lys^4 at 0.114 μg/kg/min.). Further details: species or system mongrel dogs. On the procedure:
D-Lys^4 -somatostatin and D-Ala^2,D-Lys^4 -somatostatin also were evaluated for in vivo activity in inhibiting glucagon secretion upon stimulation with insulin. Normal mongrel dogs of either sex were fasted overnight. After control blood samples had been obtained, an intravenous infusion of saline, somatostatin, D-Lys^4 -somatostatin, or D-Ala^2,D-Lys^4 -somatostatin was commenced. After 15 minutes, insulin, 0.3 units/kg., was injected intravenously. The infusion of saline, somatostatin, or the test compound was continued for two hours, and blood samples were obtained at various intervals throughout the test. The total dose of the somatostatin or test compound ranged from 120-260 μg./dog (0.07-0.13 μg/kg/min.). Administration of insulin produced a reduction in the blood glucose concentration and an increase in serum glucagon concentration.

Another assay concerns growth hormone secretion. The assay is described as follows: release of growth hormone in sodium pentobarbital-stimulated rats. The format is in vivo, Spraque-Dawley rats. On the procedure: D-Lys^4 -somatostatin and D-Ala^2,D-Lys^4 -somatostatin also were tested for their activity with respect to the release of growth hormone. The procedure which was employed is carried out using mature male Spraque-Dawley rats (Laboratory Supply Company, Indianapolis, Indiana). The test is a modification of the method of P. Brazeau, W. Vale, and R. Guilleman, Endocrinology, 94 184 (1974). In this assay, two sets, one comprising five groups of eight rats each and the other comprising three groups of eight rats each were employed. First, sodium pentobarbital was administered to all of the rats of a particular set to stimulate growth hormone secretion. In the set comprising five groups of eight rats, one group is the control group and received only saline. Two of the groups received somatostatin, one at 2 μg./rat, subcutaneously, and the other at 50 μg./rat, subcutaneously. The other two groups received D-Ala^2,D-Lys^4 -somatostatin, one at 2 μg./rat, subcutaneously and the other at 50 μg./rat, subcutaneously. The degree of inhibition of serum growth hormone concentration then was determined with respect to the control group, and the relative activities of D-Ala^2,D-Lys^4 -somatostatin and somatostatin itself were compared.
The other set of three groups of eight rats each was treated in the same manner as above, with the exception the D-Lys^4 -somatostatin was used in place of D-Ala^2,D-Lys^4 -somatostatin, and the test was carried out only at a 50 μg./rat dose level. The D-Lys^4 -somatostatin stimulated growth hormone secretion by about 8 percent over control, while somatostatin in this set inhibited growth hormone secretion by 70 percent over control.

Assay [1] deals with glucagon and insulin secretion. As to the kind of experiment: in vivo inhibition of glucagon and insulin secretion upon stimulation with L-alanine. The arrangement: species or system mongrel dogs. To be noted: dogs. As for the experimental part: D-Ala^2,D-Lys^4 -somatostatin was tested for its in vivo activity in inhibiting glucagon and insulin secretion upon stimulation with L-alanine. Normal mongrel dogs of either sex were fasted overnight. Control blood samples were obtained, and then an intravenous infusion of saline, somatostatin, or D-Ala^2,D-Lys^4 -somatostatin was started. After 30 minutes, L-alanine additionally was administered intravenously for a period of 15 minutes. The infusion of saline, somatostatin, or D-Ala^2,D-Lys^4 -somatostatin was continued for 15 minutes after completion of the alanine infusion. The total dose of somatostatin or D-Ala^2,D-Lys^4 -somatostatin which was infused is 200-500 μg./dog (0.20-0.30 μg/kg./minute), and the total dose of L-alanine infused was 1 mmol/kg.

A further assay relates to pancreatic secretion. As to the kind of experiment: inhibition of secretin-induced pancreatic secretion in dogs with pancreatic and total gastric fistula. Format: in vivo. To be noted: 3 μg/kg-hr for one hour, secretin 0.5 unit/kg-hr. On the procedure: D-Ala^2,D-Lys^4 -somatostatin was also shown to inhibit pancreatic secretion. In three dogs having both pancreatic and total gastric fistula, secretion from the pancreas was induced by infusion of secretin at 0.5 unit/kg-hr. and gastric HCl by infusion of tetragastrin at 0.5 μg/kg-hr. After a steady response was established, administration of the test compound was begun. One of the dogs was retained as control, and, of the remaining two dogs, one received somatostatin and the other D-Ala^2,D-Lys^4 -somatostatin, each for one hour at 3 μg/kg-hr.Peak inhibitory effects expressed as percent changes over control are as follows: […]

Where [2] appears, read: intravenous infusion 0.20-0.30 μg/kg./minute (D-Ala^2,D-Lys^4 -somatostatin at 0.253 μg/kg/min.), L-alanine 1 mmol/kg.

Here are results for two compounds from patent US4061626A, “Somatostatin analogs and intermediates thereto” (Eli Lilly and Company, priority 1976, dated 1977).

Where a SMILES comes first, the peptide text is derived from it.

On to `C[C@H](N)C(=O)NCC(=O)N[C@H]1CSSC[C@@H](C(=O)O)NC(=O)[C@H](CO)NC(=O)[C@H]([C@@H](C)O)NC(=O)[C@H](Cc2ccccc2)NC(=O)[C@H]([C@@H](C)O)NC(=O)[C@H](CCCCN)NC(=O)[C@H](Cc2c[nH]c3ccccc23)NC(=O)[C@H](Cc2ccccc2)NC(=O)[C@H](Cc2ccccc2)NC(=O)[C@H](CC(N)=O)NC(=O)[C@@H](CCCCN)NC1=O` [D-Lys^4 -somatostatin], for which, in the assay on gastric HCl secretion, the “inhibition of gastric acid secretion relative to the control” value was found to be 87.3%. Also, the “effect on the increase in serum glucagon concentration produced by insulin administration” value in the assay on glucagon secretion is “neither inhibited”. The “stimulation of growth hormone secretion over control” value (from here on “stimulation … over control”) in the assay with growth hormone secretion (50 μg./rat, set of three groups) is “about 8%”.

Take `C[C@H](N)C(=O)N[C@H](C)C(=O)N[C@H]1CSSC[C@@H](C(=O)O)NC(=O)[C@H](CO)NC(=O)[C@H]([C@@H](C)O)NC(=O)[C@H](Cc2ccccc2)NC(=O)[C@H]([C@@H](C)O)NC(=O)[C@H](CCCCN)NC(=O)[C@H](Cc2c[nH]c3ccccc23)NC(=O)[C@H](Cc2ccccc2)NC(=O)[C@H](Cc2ccccc2)NC(=O)[C@H](CC(N)=O)NC(=O)[C@@H](CCCCN)NC1=O` [D-Ala^2,D-Lys^4 -somatostatin, D-Ala^2, D-Lys^4 -somatostatin] (HELM PEPTIDE1{A.[dA].C.[dK].N.F.F.W.K.T.F.T.S.C}$PEPTIDE1,PEPTIDE1,3:R3-14:R3$$$V2.0): the “effect on basal serum insulin concentration” value in assay [1] (intravenous infusion 0.20-0.30 μg/kg./minute (D-Ala^2,D-Lys^4 -somatostatin at 0.253 μg/kg/min.)) was “slight decrease”. In assay [1] (setting [2]), the “effect on the rise in serum glucagon concentration during infusion of L-alanine” value is listed as “partial inhibition” and the “effect on the rise in serum insulin concentration during infusion of L-alanine” value is recorded as “partial inhibition”. Besides, the “effect on basal secretion of glucagon” value in assay [1] (intravenous infusion at 0.253 μg/kg/min.) is listed as “slight decrease”. Also, the “inhibition of gastric acid secretion relative to the control” value with gastric HCl secretion is 50.9%. In the assay with pancreatic secretion, the “Pancreatic Secretion HCO3^-, peak inhibitory effect as percent change over control” value is recorded as -68%; the “Pancreatic Secretion Protein, peak inhibitory effect as percent change over control” value is -55.4%; the “Pancreatic Secretion Volume, peak inhibitory effect as percent change over control” value is -61%. Further, in the assay with glucagon secretion, the “effect on the increase in serum glucagon concentration produced by insulin administration” value is “neither inhibited”. For the same compound, the “stimulation … over control” value in the assay on growth hormone secretion (2 μg./rat, subcutaneously, set of five groups) is on record as 114%. Besides, the “stimulation … over control” value in the assay with growth hormone secretion (50 μg./rat, subcutaneously, set of five groups) is recorded as about 200%.
